Measured values reported in patent publication US11505533B2, “Metabolically stable N-acylaminooxadiazoles useful as antibacterial agents” (MICROBIOTIX, INC., priority 2017, dated 2022).

Key:
Type in all cases: binding
Adenosine A1 = biological target: T1, Adenosine A1 (Homo sapiens, UniProt P30542); settings: for % Inhibition: 10 μM
T1 sequence (P30542 1-326): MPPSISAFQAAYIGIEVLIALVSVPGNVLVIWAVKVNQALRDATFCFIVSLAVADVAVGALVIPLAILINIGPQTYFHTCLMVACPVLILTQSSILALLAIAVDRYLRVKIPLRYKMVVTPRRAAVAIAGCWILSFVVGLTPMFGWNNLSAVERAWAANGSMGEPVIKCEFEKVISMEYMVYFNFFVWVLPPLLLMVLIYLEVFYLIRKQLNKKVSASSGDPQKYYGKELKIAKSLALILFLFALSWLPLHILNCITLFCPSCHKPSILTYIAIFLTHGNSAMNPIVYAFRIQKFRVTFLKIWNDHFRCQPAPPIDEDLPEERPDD

Adenosine A2A = Adenosine A2A (Homo sapiens, UniProt P29274); settings: for % Inhibition: 10 μM
Sequence of Adenosine A2A (P29274 whole entry): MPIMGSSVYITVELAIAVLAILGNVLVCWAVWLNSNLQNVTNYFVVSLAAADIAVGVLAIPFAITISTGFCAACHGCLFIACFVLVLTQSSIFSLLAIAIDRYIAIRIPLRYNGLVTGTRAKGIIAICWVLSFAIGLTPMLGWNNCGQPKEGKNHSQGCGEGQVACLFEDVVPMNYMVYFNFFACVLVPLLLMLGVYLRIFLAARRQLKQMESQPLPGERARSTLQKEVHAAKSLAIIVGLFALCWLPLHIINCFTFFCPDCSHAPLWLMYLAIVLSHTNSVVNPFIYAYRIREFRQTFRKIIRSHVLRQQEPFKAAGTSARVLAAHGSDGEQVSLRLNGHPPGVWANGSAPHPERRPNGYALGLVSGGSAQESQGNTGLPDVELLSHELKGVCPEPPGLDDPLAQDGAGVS

Adrenergic α1B = biological target: T2, Adrenergic α1B (Rattus norvegicus, UniProt P15823); settings: for % Inhibition: 10 μM
T2 sequence (P15823 1-515): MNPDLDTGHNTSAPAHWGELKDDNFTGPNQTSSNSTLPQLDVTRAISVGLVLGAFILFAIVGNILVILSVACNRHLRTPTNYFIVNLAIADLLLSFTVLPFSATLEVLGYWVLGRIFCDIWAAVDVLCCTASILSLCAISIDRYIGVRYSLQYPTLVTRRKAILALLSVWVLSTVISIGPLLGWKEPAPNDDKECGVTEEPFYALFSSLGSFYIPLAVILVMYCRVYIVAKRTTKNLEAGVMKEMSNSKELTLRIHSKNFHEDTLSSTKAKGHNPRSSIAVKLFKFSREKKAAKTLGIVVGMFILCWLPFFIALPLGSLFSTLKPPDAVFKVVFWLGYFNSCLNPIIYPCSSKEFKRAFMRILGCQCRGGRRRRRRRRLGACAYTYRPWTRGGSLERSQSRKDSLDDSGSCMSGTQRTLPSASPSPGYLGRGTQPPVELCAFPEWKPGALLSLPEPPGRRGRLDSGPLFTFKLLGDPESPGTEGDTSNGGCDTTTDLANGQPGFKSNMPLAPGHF

Adrenergic β1 = Adrenergic β1 (Homo sapiens, UniProt P08588); settings: for % Inhibition: 10 μM
[1] = system: Calcium Channel L-type, Dihydropyridine; settings: 10 μM; rat
Cannabinoid CB1 = Cannabinoid CB1 (Homo sapiens, UniProt P21554); settings: for % Inhibition: 10 μM
Sequence of Cannabinoid CB1 (P21554 whole entry): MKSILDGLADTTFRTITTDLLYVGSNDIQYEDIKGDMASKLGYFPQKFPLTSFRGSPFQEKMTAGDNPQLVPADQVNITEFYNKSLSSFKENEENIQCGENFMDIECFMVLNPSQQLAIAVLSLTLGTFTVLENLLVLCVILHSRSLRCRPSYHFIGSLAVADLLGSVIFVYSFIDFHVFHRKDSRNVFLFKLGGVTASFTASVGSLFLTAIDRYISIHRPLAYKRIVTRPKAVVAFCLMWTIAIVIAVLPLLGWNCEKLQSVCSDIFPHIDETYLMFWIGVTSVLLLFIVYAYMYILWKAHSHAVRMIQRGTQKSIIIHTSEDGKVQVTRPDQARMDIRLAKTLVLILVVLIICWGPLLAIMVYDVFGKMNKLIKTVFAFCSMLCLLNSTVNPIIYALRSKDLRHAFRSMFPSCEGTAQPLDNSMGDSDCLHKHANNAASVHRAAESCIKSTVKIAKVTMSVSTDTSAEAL

Dopamine D1 = Dopamine D1 (Homo sapiens, UniProt P21728); settings: for % Inhibition: 10 μM
Dopamine D2s = Dopamine D2s (Homo sapiens, UniProt P14416); settings: for % Inhibition: 10 μM
Sequence of Dopamine D2s (P14416 1-414 isoform P14416-2): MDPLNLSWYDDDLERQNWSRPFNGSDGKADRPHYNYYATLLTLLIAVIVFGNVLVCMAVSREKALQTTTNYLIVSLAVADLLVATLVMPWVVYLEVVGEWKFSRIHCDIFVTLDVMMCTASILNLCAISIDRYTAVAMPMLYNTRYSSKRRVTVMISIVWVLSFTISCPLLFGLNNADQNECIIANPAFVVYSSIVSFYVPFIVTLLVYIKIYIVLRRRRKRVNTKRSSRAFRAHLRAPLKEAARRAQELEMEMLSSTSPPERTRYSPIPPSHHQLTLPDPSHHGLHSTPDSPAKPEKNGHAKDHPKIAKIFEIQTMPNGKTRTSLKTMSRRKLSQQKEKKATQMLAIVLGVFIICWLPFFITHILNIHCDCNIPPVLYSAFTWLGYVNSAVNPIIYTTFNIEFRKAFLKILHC

[2] = system: GABAA, Flunitrazepam, Central; settings: 10 μM; rat
GABAA, Muscimol, Central = settings: 10 μM; rat
[3] = system: Glutamate, NMDA, Phencyclidine; settings: 10 μM; rat
Histamine, H1 = Histamine, H1 (Homo sapiens, UniProt P35367); settings: for % Inhibition: 10 μM
Sequence of Histamine, H1 (P35367 whole entry): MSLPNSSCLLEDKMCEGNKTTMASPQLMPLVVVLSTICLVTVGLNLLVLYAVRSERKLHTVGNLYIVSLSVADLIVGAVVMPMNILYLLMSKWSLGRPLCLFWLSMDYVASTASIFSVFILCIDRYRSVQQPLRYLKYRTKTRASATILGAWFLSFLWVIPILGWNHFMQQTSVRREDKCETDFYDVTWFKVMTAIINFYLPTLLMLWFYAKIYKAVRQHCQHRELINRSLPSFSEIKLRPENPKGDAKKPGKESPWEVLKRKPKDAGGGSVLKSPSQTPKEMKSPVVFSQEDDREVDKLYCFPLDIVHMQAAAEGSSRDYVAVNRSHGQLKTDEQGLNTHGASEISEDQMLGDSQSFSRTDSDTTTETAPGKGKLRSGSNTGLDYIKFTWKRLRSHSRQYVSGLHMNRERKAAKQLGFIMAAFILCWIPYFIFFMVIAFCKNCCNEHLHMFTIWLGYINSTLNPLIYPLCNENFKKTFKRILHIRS

Imidazoline I2, Central = settings: 10 μM; rat
Muscarinic M2 = biological target: T3, Muscarinic M2 (Homo sapiens, UniProt P08172); settings: for % Inhibition: 10 μM
T3 sequence (P08172 1-466): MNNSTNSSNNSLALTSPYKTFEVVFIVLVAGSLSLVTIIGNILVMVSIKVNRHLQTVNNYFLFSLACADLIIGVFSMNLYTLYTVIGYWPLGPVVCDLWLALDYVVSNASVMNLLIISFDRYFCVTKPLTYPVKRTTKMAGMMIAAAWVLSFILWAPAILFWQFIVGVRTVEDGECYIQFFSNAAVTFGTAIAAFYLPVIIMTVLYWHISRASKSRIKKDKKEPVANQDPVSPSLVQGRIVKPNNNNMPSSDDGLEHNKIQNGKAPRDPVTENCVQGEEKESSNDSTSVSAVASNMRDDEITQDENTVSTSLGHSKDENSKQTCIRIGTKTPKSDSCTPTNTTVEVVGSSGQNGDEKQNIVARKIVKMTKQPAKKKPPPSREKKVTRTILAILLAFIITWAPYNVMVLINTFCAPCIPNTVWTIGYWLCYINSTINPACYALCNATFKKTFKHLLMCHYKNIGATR

Nicotinic Acetylcholine = settings: 10 μM; human
[4] = biological target: Nicotinic Acetylcholine a1, Bungarotoxin (Homo sapiens, UniProt P02708+P07510+Q07001); settings: for % Inhibition: 10 μM, human
Opiate μ(OP3, MOP) = Opiate μ(OP3, MOP) (Homo sapiens, UniProt P35372); settings: for % Inhibition: 10 μM
Phorbol Ester = settings: 10 μM; mouse
Potassium Channel (KATP) = Potassium Channel (KATP) (Cricetus cricetus, UniProt Q09427); settings: hamster; for % Inhibition: 10 μM
Sequence of Potassium Channel (KATP) (Q09427 whole entry): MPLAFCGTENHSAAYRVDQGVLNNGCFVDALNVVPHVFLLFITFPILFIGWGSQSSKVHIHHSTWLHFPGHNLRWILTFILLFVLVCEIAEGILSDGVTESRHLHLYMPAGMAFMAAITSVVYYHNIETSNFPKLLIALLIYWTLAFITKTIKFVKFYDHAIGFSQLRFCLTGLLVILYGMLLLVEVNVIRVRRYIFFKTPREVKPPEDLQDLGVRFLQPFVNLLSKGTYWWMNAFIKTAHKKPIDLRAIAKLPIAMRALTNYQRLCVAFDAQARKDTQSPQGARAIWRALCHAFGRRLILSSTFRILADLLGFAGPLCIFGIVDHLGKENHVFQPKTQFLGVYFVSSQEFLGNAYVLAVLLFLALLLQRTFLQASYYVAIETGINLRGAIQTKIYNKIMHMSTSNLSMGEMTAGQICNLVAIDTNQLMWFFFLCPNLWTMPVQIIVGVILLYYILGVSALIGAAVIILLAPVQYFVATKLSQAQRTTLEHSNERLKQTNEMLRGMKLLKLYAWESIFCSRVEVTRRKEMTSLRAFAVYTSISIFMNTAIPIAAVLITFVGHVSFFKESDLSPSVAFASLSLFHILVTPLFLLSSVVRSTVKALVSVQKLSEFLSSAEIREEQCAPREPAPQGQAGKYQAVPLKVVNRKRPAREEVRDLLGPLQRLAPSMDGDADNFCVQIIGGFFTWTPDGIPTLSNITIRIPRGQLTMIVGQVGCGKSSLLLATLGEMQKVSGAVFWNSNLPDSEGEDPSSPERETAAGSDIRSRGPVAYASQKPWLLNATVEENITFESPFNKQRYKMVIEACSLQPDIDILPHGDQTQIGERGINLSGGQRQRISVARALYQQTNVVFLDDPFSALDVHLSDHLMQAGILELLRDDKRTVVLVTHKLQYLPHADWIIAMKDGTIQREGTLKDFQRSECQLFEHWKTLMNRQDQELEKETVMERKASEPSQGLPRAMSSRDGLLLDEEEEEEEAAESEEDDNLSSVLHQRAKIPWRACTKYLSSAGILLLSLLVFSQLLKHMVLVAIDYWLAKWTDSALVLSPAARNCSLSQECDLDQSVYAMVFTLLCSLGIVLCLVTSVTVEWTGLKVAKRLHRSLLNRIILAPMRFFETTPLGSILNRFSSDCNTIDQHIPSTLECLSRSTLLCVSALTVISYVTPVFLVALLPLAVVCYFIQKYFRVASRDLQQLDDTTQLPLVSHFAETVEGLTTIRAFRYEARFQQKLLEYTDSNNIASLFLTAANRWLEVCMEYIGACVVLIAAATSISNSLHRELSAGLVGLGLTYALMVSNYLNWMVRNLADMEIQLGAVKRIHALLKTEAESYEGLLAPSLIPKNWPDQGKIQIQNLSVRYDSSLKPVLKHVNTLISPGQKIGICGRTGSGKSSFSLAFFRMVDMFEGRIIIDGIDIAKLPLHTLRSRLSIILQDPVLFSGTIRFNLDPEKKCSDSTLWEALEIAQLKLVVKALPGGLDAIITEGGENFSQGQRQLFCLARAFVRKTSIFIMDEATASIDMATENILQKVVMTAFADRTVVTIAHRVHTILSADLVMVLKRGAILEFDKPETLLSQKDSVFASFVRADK

[5] = biological target: Seritonin (5-Hydroxytryptamine) 5-HT2B (Homo sapiens, UniProt P41595); settings: for % Inhibition: 10 μM
Sequence of Seritonin (5-Hydroxytryptamine) 5-HT2B (P41595 whole entry): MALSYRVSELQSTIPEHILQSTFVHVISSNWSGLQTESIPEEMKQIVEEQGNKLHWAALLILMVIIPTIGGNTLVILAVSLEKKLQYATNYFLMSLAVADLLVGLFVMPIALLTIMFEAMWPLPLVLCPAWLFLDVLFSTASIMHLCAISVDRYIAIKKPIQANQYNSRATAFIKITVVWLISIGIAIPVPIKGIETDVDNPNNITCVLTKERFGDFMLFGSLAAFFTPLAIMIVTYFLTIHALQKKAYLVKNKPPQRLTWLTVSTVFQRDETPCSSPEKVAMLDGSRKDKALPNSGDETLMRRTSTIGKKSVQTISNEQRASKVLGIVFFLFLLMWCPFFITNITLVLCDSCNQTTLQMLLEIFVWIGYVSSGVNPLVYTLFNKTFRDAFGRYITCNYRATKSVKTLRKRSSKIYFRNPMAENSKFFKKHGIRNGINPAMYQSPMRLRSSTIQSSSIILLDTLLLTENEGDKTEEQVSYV

Sigma σ1 = Sigma σ1 (Homo sapiens, UniProt Q99720); settings: for % Inhibition: 10 μM
Sequence of Sigma σ1 (Q99720 whole entry): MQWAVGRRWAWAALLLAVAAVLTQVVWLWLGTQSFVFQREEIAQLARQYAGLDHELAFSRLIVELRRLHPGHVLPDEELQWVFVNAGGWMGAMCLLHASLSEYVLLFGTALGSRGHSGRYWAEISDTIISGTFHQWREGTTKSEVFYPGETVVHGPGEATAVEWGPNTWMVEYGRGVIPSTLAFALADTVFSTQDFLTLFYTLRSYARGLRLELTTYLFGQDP

[6] = biological target: Transporter, Norepinephrine (NET) (Homo sapiens, UniProt P23975); settings: for % Inhibition: 10 μM
Sequence of Transporter, Norepinephrine (NET) (P23975 whole entry): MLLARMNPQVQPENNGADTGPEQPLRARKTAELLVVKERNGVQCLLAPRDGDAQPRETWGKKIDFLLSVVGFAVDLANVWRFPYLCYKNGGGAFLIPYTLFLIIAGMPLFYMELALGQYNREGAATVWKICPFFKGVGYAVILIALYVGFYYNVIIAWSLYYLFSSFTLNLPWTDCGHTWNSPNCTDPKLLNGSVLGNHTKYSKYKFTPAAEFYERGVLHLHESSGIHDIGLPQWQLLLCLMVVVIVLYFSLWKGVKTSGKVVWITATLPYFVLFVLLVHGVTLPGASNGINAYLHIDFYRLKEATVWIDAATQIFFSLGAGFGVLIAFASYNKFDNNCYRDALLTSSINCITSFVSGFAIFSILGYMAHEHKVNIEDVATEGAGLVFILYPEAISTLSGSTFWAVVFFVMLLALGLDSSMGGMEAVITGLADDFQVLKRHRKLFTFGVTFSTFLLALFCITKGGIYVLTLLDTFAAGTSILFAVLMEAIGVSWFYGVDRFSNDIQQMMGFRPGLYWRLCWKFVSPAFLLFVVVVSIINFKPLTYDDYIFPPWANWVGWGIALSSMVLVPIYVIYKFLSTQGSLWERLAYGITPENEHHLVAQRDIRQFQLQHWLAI

Row | Structure (SMILES) | % Inhibition [1] [%] | % Inhibition [2] [%] | % Inhibition (GABAA, Muscimol, Central) [%] | % Inhibition [3] [%] | % Inhibition (Imidazoline I2, Central) [%] | % Inhibition (Nicotinic Acetylcholine) [%] | % Inhibition (Phorbol Ester) [%] | % Inhibition (Adenosine A1) [%] | % Inhibition (Adenosine A2A) [%] | % Inhibition (Adrenergic α1B) [%] | % Inhibition (Adrenergic β1) [%] | % Inhibition (Cannabinoid CB1) [%] | % Inhibition (Dopamine D1) [%] | % Inhibition (Dopamine D2s) [%] | % Inhibition (Histamine, H1) [%] | % Inhibition (Muscarinic M2) [%] | % Inhibition [4] [%] | % Inhibition (Opiate μ(OP3, MOP)) [%] | % Inhibition (Potassium Channel (KATP)) [%] | % Inhibition [5] [%] | other results
1 | O=C(Nc1nnc(-c2ccc(F)cc2)o1)c1ccc(Oc2ccccc2)nc1 [MBX-4237] | 2 | 25 | −6 | 9 | 14 | 8 | 2 |  |  |  |  |  |  |  |  |  |  |  |  |  | inhibition at 10 µM (Adenosine A1): 10%; inhibition at 10 µM (Adenosine A2A): 6%; inhibition at 10 µM (Adrenergic α1B): -2%; inhibition at 10 µM (Adrenergic β1): -9%; inhibition at 10 µM (Cannabinoid CB1): 7%; inhibition at 10 µM (Dopamine D1): 7%; inhibition at 10 µM (Dopamine D2s): -3%; inhibition at 10 µM (Histamine, H1): 6%; inhibition at 10 µM (Muscarinic M2): 17%; inhibition at 10 µM [4]: -8%; inhibition at 10 µM (Opiate μ(OP3, MOP)): 12%; inhibition at 10 µM (Potassium Channel (KATP)): 9%; inhibition at 10 µM [5]: -4%; inhibition at 10 µM (Sigma σ1): 32%; inhibition at 10 µM [6]: 45%
2 | O=C(Nc1nnc(-c2ccc(F)cc2)o1)c1ccc(OC2CCCCC2)cc1 [MBX-4292] | 23 | −1 | −4 | 0 | 10 | 1 | 2 | 8 | 11 | 3 | 3 | 11 | 17 | 1 | −8 | 0 | −4 | 4 | 8 | −7 | % Inhibition (Sigma σ1): 10%; % Inhibition [6]: 77%
3 | O=C(Nc1nnc(-c2ccc(F)cc2)o1)N1CC=C(C(F)(F)F)CC1 [MBX-4347] | 16 | 22 | 4 | 5 | −5 | −4 | 7 | −4 | 3 | 7 | 3 | 0 | 5 | −2 | 22 | 2 | 2 | −14 | 2 | −1 | % Inhibition (Sigma σ1): −2%; % Inhibition [6]: 32%
4 | O=C(Nc1nnc(-c2ccc(F)cc2)o1)N1CCc2ccccc2C1 [MBX-4132] | 15 | 13 | 1 | −3 | 33 | −8 | 4 | 48 | 43 | 21 | −10 | 14 | −8 | 25 | 17 | 13 | 0 | 74 | 10 | 53 | % Inhibition (Sigma σ1): −4%; % Inhibition [6]: 50%
